{"source": "patent US8623821B2", "about": "“Zymogen activators” (Genentech, Inc., priority 2011, dated 2014)", "key": {"[1]": {"biological_target": "T1, scHGF (Homo sapiens, UniProt P14210, R494E)", "T1 sequence (P14210 32-728 R494E)": "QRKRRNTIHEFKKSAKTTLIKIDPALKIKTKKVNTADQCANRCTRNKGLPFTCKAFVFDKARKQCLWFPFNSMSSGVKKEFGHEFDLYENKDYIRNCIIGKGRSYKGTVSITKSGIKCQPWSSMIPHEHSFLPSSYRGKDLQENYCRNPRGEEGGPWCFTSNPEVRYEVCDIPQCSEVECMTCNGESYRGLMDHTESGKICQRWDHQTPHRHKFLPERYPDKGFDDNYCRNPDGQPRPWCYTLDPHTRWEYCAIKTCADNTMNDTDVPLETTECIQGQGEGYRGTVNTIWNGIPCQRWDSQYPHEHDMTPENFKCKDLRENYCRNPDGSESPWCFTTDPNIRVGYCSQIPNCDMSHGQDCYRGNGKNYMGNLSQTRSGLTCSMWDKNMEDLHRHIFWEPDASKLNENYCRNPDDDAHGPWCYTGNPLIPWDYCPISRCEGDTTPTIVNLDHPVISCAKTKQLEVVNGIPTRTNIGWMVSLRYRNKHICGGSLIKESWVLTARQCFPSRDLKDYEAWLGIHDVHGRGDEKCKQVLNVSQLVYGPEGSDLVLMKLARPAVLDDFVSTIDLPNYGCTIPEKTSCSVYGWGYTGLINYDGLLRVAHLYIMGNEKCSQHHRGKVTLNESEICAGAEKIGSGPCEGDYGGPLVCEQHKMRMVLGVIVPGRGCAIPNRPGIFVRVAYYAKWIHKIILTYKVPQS", "assay": "BxPC-3 cell survival assay, peptide titrations in the presence of scHGF", "assay_type": "cell-based", "parameters": "Full-length recombinant HGF proteins were expressed in 1-liter fermentation cultures of Chinese hamster ovary (CHO) cells; made in house; host or cells: CHO cells (scHGF)", "conditions": "BxPC-3 cells, serum starvation, 72 h, alamar Blue; read-out: EC50 of activation of scHGF, cell survival", "protocol": "BxPC-3 cells were obtained from ATCC and maintained in cell culture medium (RPMI, 10% FBS (Sigma), 50 U/ml penicillin/50 μg/ml streptomycin, 2 mM glutamine). For the survival assay, cells were plated at 10,000 cells/well in 96 well tissue culture plates (Falcon 353072) in 50 μl assay diluent (RPMI, 0.1% BSA (Sigma) 50 U/ml penicillin/50 μg/ml streptomycin, 2 mM glutamine). Cells were allowed to attach for 1-2 h in a 37° C. CO2 incubator. Human HGF proteins (HGF, scHGF or scHGF plus peptide titrations) were pre-incubated at room temperature in assay diluent. HGF/peptide mixtures were added to cells in microtiter plates in triplicate at 50 μl per well and plates were incubated at 37° C. in a CO2 incubator. Final concentrations of HGF variants were 400 ng/ml and peptide concentrations were titrated accordingly. After 72 h, 25 μl alamar Blue (Serotec, BUF012B) was added to each well and incubate an additional 2 h at 37° C. in a CO2 incubator. Plates were agitated vigorously for 10 min at room temperature, and fluorescence was read at 530-590 nm in a fluorescent plate reader.\nUsing Bx-PC3 cells, peptide titrations in the presence of scHGF were performed and observed robust activation was seen of scHGF signaling through Met, which reached levels equivalent HGF-induced signaling.\n(§1) Cellular assays were used to address whether the optimized ZAPtides act as allosteric activators of pro-HGF and stimulate Met signaling in biologically relevant settings of cell survival and migration. […] Importantly, ZAPtides required the presence of scHGF as well as induced […] cell survival that was antagonized by an HGF-blocking anti-Met antibody, each confirming Met pathway selectivity."}, "[2]": {"biological_target": "T1, scHGF", "assay": "In vitro wound closure assay, HeLa cell migration in the presence of scHGF", "assay_type": "cell-based", "parameters": "Full-length recombinant HGF proteins were expressed in 1-liter fermentation cultures of Chinese hamster ovary (CHO) cells; made in house; host or cells: CHO cells (scHGF); Met is endogenous in HeLa cells", "conditions": "HeLa cells, scHGF present, read-out: EC50 of HeLa cell migration response", "description": "as §1"}, "[3]": {"biological_target": "T2, prethrombin-2 (Homo sapiens, UniProt P00734)", "T2 construct": "Zymogen serine proteases prethrombin-2 and Protein C were purchased from Haematologic Technologies, Inc; purchased Haematologic Technologies, Inc. (Essex Junction, Vt.)", "assay": "Zymogen serine protease activity assay (Ile-Pro-Arg-pNA hydrolysis)", "assay_type": "biochemical", "conditions": "100 nM prethrombin-2, 2 mM Ile-Pro-Arg-pNA, peptide titration", "protocol": "(§2) Zymogen serine proteases prethrombin-2 and Protein C were purchased from Haematologic Technologies, Inc. (Essex Junction, Vt.). Kinetic assays were carried out in 20 mM Hepes, 150 mM NaCl, 5 mM CaCl2, 0.01% Triton X-100, pH 7.2. All reactions contained 100 nM of enzyme plus 2 mM Ile-Pro-Arg-pNA substrate. IVGG.147A was titrated and the initial rates of substrate hydrolysis were measured in clear bottom 96-well plates using 405 nm absorbance on a SpectraMax Plus (Molecular Devices, Inc.).\n(§3) The IVGG.14 peptide activator of pro-HGF took advantage of the canonical trypsin-like activation mechanism in order to allosterically activate binding of the serine protease-like domain within pro-HGF to Met. Given this activation mechanism is highly conserved among zymogens of the trypsin-like family of serine proteases and the fact that these proteins share a high degree of structural homology within the serine protease-like domains as well as the activation pockets, ZAPs for pro-HGF were analyzed for ability allosterically activate other zymogen serine proteases."}, "[4]": {"biological_target": "T3, Protein C (Homo sapiens, UniProt P04070)", "T3 construct": "purchased Haematologic Technologies, Inc. (Essex Junction, Vt.)", "T3 sequence (P04070 19-461 limits assumed)": "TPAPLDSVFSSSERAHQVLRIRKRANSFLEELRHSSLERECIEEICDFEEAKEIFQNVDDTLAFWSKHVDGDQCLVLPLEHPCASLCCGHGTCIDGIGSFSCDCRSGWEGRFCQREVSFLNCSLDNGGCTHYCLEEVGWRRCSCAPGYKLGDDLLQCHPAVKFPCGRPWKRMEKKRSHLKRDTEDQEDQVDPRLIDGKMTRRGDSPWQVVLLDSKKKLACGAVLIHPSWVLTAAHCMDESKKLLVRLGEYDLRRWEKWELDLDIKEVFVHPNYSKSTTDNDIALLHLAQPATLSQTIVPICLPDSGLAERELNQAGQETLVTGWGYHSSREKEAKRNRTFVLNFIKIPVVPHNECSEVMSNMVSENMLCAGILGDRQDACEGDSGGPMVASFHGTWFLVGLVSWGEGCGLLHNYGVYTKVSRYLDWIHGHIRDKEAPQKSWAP", "assay": "Zymogen serine protease activity assay (Ile-Pro-Arg-pNA hydrolysis)", "assay_type": "biochemical", "conditions": "100 nM Protein C, 2 mM Ile-Pro-Arg-pNA, peptide titration", "protocol": "as §2, §3"}, "[5]": {"assay": "Peptide solubility", "assay_type": "physicochemical"}, "[6]": {"biological_target": "zymogen-like pro-MSP β-chain (zMSP β)", "assay": "Activation of zMSP β binding to RON", "conditions": "activation of zMSP β to bind RON", "protocol": "The phage approach was also tested against pro-Macrophage Stimulating Protein (pro-MSP), another plasminogen-related growth factor, which, following proteolytic cleavage, signals through the RON receptor, having important roles in inflammation and cancer. Using a new cyclic library based on ZAP.03 (ZAPtide3 Library) and the described selection method a ZAPtide was discovered, ZAP3.2 that was specific for activating the zymogen-like pro-MSP β-chain (zMSP β) to bind RON with an AC50 of 134 μM."}}, "note": "Where a SMILES comes first, the peptide text is derived from it. Bridges are numbered along the chain shown (N, C = ends). Where no end group is shown, it is not given here."}
{"compound": "CC[C@H](C)[C@H](N)C(=O)N[C@H](C(=O)NCC(=O)NCC(=O)N[C@H]1CSSC[C@@H](C(=O)N[C@H](C(N)=O)[C@@H](C)CC)NC(=O)[C@H](CCC(=O)O)NC(=O)[C@H](CCC(=O)O)NC(=O)[C@H](CCCNC(=N)N)NC(=O)[C@H](CC(=O)O)NC(=O)[C@H](CCSC)NC(=O)[C@H](Cc2c[nH]c3ccccc23)NC(=O)[C@H](Cc2ccc(O)cc2)NC(=O)[C@@H]2CCCN2C1=O)[C@@H](C)CC", "note": "[ZAP.03, I I G G C P Y W M D R E E C I] (H-IIGGCPYWMDREECI-NH2; disulfide 5-14)", "values": [{"measurement": "EC50", "setting": "[1]", "value": 400, "unit": "nM"}, {"measurement": "EC50", "setting": "[2]", "value": 60, "unit": "nM"}]}
{"compound": "CC[C@H](C)[C@H](N)C(=O)N[C@H](C(=O)NCC(=O)NCC(=O)N[C@@H](Cc1ccc(O)cc1)C(=O)N1CCC[C@H]1C(=O)N[C@@H](C)C(=O)N[C@@H](Cc1c[nH]c2ccccc12)C(=O)N[C@@H](CCSC)C(=O)N[C@@H](CC(=O)O)C(=O)N[C@H](C(N)=O)C(C)C)C(C)C", "note": "[IVGG.147A, I V G G Y P A W M D V] (H-IVGGYPAWMDV-NH2; N-terminus assumed)", "values": [{"measurement": "initial rate of substrate hydrolysis (Vi)", "setting": "[3]", "value": "significantly increased"}, {"measurement": "initial rate of substrate hydrolysis (Vi)", "setting": "[4]", "value": "significantly increased"}, {"measurement": "solubility, in words", "setting": "[5]", "value": "exceptionally soluble"}]}
{"compound": "ZAP3.2: ZAPtide from the cyclic ZAPtide3 Library based on ZAP.03, activating zymogen-like pro-MSP β-chain (zMSP β) to bind RON (IVGGEPVWYVW; not fully specified)", "values": [{"measurement": "AC50", "setting": "[6]", "value": 134000, "unit": "nM"}]}
